# Experiments:
# [1] = system: A2780 ovarian carcinoma cells; assay: Antiproliferative activity on A2780 cells (MTT); format: cell-based, human; details: four days of incubation; for IC50: Homo sapiens, 96 h, read-out: Cellular activity pIC50 (converted)
# Description: Cellular activity of the compounds of formula (I) was determined on A2780 tumour cells using a colorimetric assay for cell toxicity or survival (Mosmann Tim, Journal of Immunological Methods 65: 55-63, 1983)(see example C.2).
# All compounds tested were dissolved in DMSO and further dilutions were made in culture medium. Final DMSO concentrations never exceeded 0.1% (v/v) in cell proliferation assays. Controls contained A2780 cells and DMSO without compound and blanks contained DMSO but no cells. MTT was dissolved at 5 mg/ml in PBS. A glycine buffer comprised of 0.1 M glycine and 0.1 M NaCl buffered to pH 10.5 with NaOH (1 N) was prepared (all reagents were from Merck).
# The human A2780 ovarian carcinoma cells (a kind gift from Dr. T. C. Hamilton [Fox Chase Cancer Centre, Pennsylvania, USA]) were cultured in RPMI 1640 medium supplemented with 2 mM L-glutamine, 50 μg/ml gentamicin and 10% fetal calf serum. Cells were routinely kept as monolayer cultures at 37° C. in a humidified 5% CO2 atmosphere. Cells were passaged once a week using a trypsin/EDTA solution at a split ratio of 1:40. All media and supplements were obtained from Life Technologies. Cells were free of mycoplasma contamination as determined using the Gen-Probe Mycoplasma Tissue Culture kit (supplier: BioMérieux).
# Cells were seeded in NUNC™ 96-well culture plates (Supplier: Life Technologies) and allowed to adhere to the plastic overnight. Densities used for plating were 1500 cells per well in a total volume of 200 μl medium. After cell adhesion to the plates, medium was changed and drugs and/or solvents were added to a final volume of 200 Following four days of incubation, medium was replaced by 200 μl fresh medium and cell density and viability was assessed using an MTT-based assay. To each well, 25 μl MTT solution was added and the cells were further incubated for 2 hours at 37° C. The medium was then carefully aspirated and the blue MTT-formazan product was solubilized by addition of 25 μl glycine buffer followed by 100 μl of DMSO. […] Within an experiment, the results for each experimental condition are the mean of 3 replicate wells. For initial screening purposes, compounds were tested at a single fixed concentration of 10^−6 M. For active compounds, the experiments were repeated to establish full concentration-response curves. For each experiment, controls (containing no drug) and a blank incubation (containing no cells or drugs) were run in parallel. The blank value was subtracted from all control and sample values. For each sample, the mean value for cell growth (in absorbance units) was expressed as a percentage of the mean value for cell growth of the control. […] Herein the effects of test compounds are expressed as pIC50 (the negative log value of the IC50-value).
# [2] = molecular target: histone deacetylase (HeLa nuclear extracts); assay: In vitro assay for inhibition of histone deacetylase; format: biochemical; parameters: key: pIC50 = -log IC50; details: [3H]acetylated histone H4 peptide substrate
# Description: The in vitro assay for inhibition of histone deacetylase (see example C.1) measures the inhibition of HDAC enzymatic activity obtained with the compounds of formula (I).
# HeLa nuclear extracts (supplier: Biomol) were incubated at 60 μg/ml with 2×10^−8 M of radiolabeled peptide substrate. As a substrate for measuring HDAC activity a synthetic peptide, i.e. the amino acids 14-21 of histone H4, was used. The substrate is biotinylated at the NH2-terminal part with a 6-aminohexanoic acid spacer, and is protected at the COOH-terminal part by an amide group and specifically [^3H]acetylated at lysine 16. The substrate, biotin-(6-aminohexanoic)Gly-Ala-([^3H]-acetyl-Lys-Arg-His-Arg-Lys-Val-NH2), was added in a buffer containing 25 mM Hepes, 1 M sucrose, 0.1 mg/ml BSA and 0.01% Triton X-100 at pH 7.4. After 30 min the deacetylation reaction was terminated by the addition of HCl and acetic acid. (final concentration 0.035 mM and 3.8 mM respectively). After stopping the reaction, the free ^3H-acetate was extracted with ethylacetate. After mixing and centrifugation, the radioactivity in an aliquot of the upper (organic) phase was counted in a β-counter. For each experiment, controls (containing HeLa nuclear extract and DMSO without compound), a blank incubation (containing DMSO but no HeLa nuclear extract or compound) and samples (containing compound dissolved in DMSO and HeLa nuclear extract) were run in parallel. In first instance, compounds were tested at a concentration of 10^−5M. […] In each test the blank value was subtracted from both the control and the sample values. The control sample represented 100% of substrate deacetylation. For each sample the radioactivity was expressed as a percentage of the mean value of the controls. […] Herein the effects of test compounds are expressed as pIC50 (the negative log value of the IC50-value).
# [3] = Kinetic solubility in aqueous media; format: physicochemical; details: aqueous buffer, kinetic from dmso stock; phosphate citrate buffer pH 7.4, turbidity by nephelometer; read-out: Solubility Score
# Description: Kinetic solubility in aqueous media measures the ability of a compound to stay in aqueous solution upon dilution (see example C.3).
# DMSO-stock solutions are diluted with a single aqueous buffer solvent in 3 consecutive steps. For every dilution turbidity is measured with a nephelometer.
# In the first dilution step, 10 μl of a concentrated stock-solution of the active compound, solubilized in DMSO (5 mM), was added to 100 μl phosphate citrate buffer pH 7.4 and mixed. In the second dilution step, an aliquot (20 μl) of the first dilution step was further dispensed in 100 μl phosphate citrate buffer pH 7.4 and mixed. Finally, in the third dilution step, a sample (20 μl) of the second dilution step was further diluted in 100 μl phosphate citrate buffer pH 7.4 and mixed. All dilutions were performed in 96-well plates Immediately after the last dilution step the turbidity of the three consecutive dilution steps were measured with a nephelometer. Dilution was done in triplicate for each compound to exclude occasional errors. Based on the turbidity measurements a ranking is performed into 3 classes. Compounds with high solubility obtained a score of 3 and for this compounds the first dilution is clear. Compounds with medium solubility obtained a score of 2. For these compounds the first dilution is unclear and the second dilution is clear.
SMILES,IC50 [1],Enzyme activity pIC50 [2],solubility [3],melting point,Cellular activity pIC50 [1]
O=C(NO)c1ccc(N2CCC(NC(=O)c3ccc4ccccc4c3)CC2)cc1 [Co. No. 1],4510 nM,5.649,,,
COc1cc(C(=O)NC2CCN(c3ccc(C(=O)NO)cn3)CC2)nc2ccccc12 [Co. No. 2],1790 nM,6.794,> 454 µM,,
O=C(NO)c1cnc(N2CCC(CNC(=O)c3ccc4ccccc4c3)CC2)nc1 [Co. No. 3],132 nM,8.103,< 75.8 µM,226 °C,
O=C(NO)c1ccc(N2CCC(NC(=O)c3ccc4ccccc4c3)CC2)nc1 [compound 5],,6.861,,,5.664
O=C(NO)c1ccc(N2CCC(NC(=O)c3cc4ccccc4cn3)CC2)nc1 [compound 6],,6.951,,,5.86
Cn1c(C(=O)NC2CCN(c3ccc(C(=O)NO)cn3)CC2)cc2ccccc21 [compound 7],,6.416,,,5.331
O=C(NO)c1ccc(N2CCC(NC(=O)c3cc4cc(F)ccc4[nH]3)CC2)nc1 [compound 8],,6.94,,,5.497
Cn1cc(C(=O)NC2CCN(c3ccc(C(=O)NO)cn3)CC2)c2ccccc21 [compound 9],,6.774,,,5.579
COc1ccc2[nH]c(C(=O)NC3CCN(c4ccc(C(=O)NO)cn4)CC3)cc2c1 [compound 10],,7.19,,,5.747
O=C(NO)c1cnc(N2CC[C@H](O)[C@H](CNS(=O)(=O)c3ccc4ccccc4c3)C2)nc1 [compound 11],,6.215,,,<5
O=C(CC(c1ccccc1)c1ccccc1)NC1CCN(c2ccc(C(=O)NO)cn2)CC1 [compound 12],,6.909,,,5.562
O=C(Cc1c[nH]c2ccccc12)NC1CCN(c2ccc(C(=O)NO)cn2)CC1 [compound 13],,7.061,,,<5
O=C(NO)c1ccc(N2CCC(NC(=O)C3CCc4ccccc43)CC2)nc1 (centres unmarked) [compound 14],,6.611,,,5.175

# — patent publication US8394831B2, “Carbonylamino-derivatives as novel inhibitors of histone deacetylase” (Janssen Pharmaceutica, N.V., priority 2002, dated 2013)
